Measured values reported in US11447638B2, “Acetalanthraquinone derivatives useful for cellular staining” (BIOSTATUS LIMITED, priority 2016, dated 2022).

Legend:
[1] = Absorption and fluorescence spectra of compounds in PBS or HEPES; format: physicochemical; conditions: for fluorescence emission, 540 nm (Ex in PBS): excited at 540 nm
Procedure: The compounds were exited at 540 nm and at the wavelength of their absorption peak 1 (λ1 nm). The far-red fluorescent DNA dye DRAQ5 was used as reference.
Compounds were dissolved in DMSO (Sigma) to 20 mM stock concentration. DRAQ5 (Biostatus Ltd) was used as a control anthraquinone agent dissolved in deionised water. Working solutions were prepared in PBS (phosphate buffered saline; Sigma) or HEPES (4-(2-hydroxyethyl)-1-piperazineethanesulfonic acid; Sigma) at 20 or 40 μM. Probe solutions (20 μM), respectively in PBS or HEPES, were pipetted into a 1 mL quartz cuvette (Thermo Fisher Scientific). After obtaining baseline spectra in relevant buffer to zero the instrument, absorbance measurements were obtained using a Beckmann Coulter DU 800 UV/Visible spectrophotometer. The excitation wavelengths were scanned from 280 to 800 nm. Fluorescent spectral scans were performed using a Perkin Elmer LS-50B Luminescence spectrophotometer. To obtain emission scans, the excitation wavelength was set accordingly to the maximum values for each agent or another designated excitation wavelength that matches typical laser lines; and the emission wavelength were scanned from 400 nm to 900 nm in 1 nm increments. A Xenon flash lamp was used as the light source, with the lamp energy set to high. For each data point ten measurements were acquired with the photomultiplier tube sensitivity set at 125.
Compounds were excited at a wavelength corresponding to the first absorbance peak 1 (FIG. 1A and FIG. 1B show absorption (line) and fluorescence (dots) spectra of compounds; both are normalised to peak value.

[2] = test system: fixed human osteosarcoma U-2 OS cells; assay: Labelling of fixed cells, wide-field fluorescence microscopy; format: cell-based; conditions: 20 μM, 1 h exposure in PBS, FIG. 2
Procedure: Cells were seeded in a 24 well coverslip bottomed-plate, cultured overnight in McCoys media. 24 or 48 hours later the cells were washed gently with 3×2 mL PBS per well. The PBS was removed and 0.5 mL of 4% paraformaldehyde solution [a 4% paraformaldehyde solution in PBS was made fresh each time from a 16% stock solution (Thermo Fisher Scientific)] was added in each well and cells were incubated for 30 min. The paraformaldehyde was removed and cells were washed 3×2 mL PBS per well. 1 mL of PBS or HEPES was added to each well.
(§1) Before analysis, cells were incubated at 37° C. in the dark for the period designated. Samples were analysed directly without any further washing step. For live cell labelling cells were seeded, plated in a similar way, into a similar multi-well dish for optimal optical performance and could be used across all microscope platforms.
(§2) This basic protocol was the standard for testing the patterns of AAQ agents at 20 μM, compared to 20 μM of DRAQ5 as the benchmark reference (both in terms of cellular location and ability to detect the red fluorescence).
Low resolution wide-field fluorescence microscopy was used to evaluate cell labelling in fixed human osteosarcoma U-2 OS cells. The system was an Axiovert 100 microscope (Carl Zeiss, Welwyn Garden City, UK) ×10 0.3 NA air objective lens and an ORCA-ER CCD camera (Hamamatsu, Reading, UK). Illumination was controlled by a shutter in front of the transmission lamp. Image capture was controlled using Metamorph software. This evaluates the ability of the compounds to label cellular compartments without active uptake or efflux prohibiting delivery into the given cell. Image collection was performed after 1 h of exposure to probes in PBS. The calibration bar represents 50 μm.

[3] = test system: A549 live cells; assay: Loading of A549 live cells, wide-field fluorescence microscopy; format: cell-based, human; conditions: 20 μM, 30 min incubation, FIG. 3
Procedure: as §1, §2
Low resolution wide-field fluorescence microscopy was used to evaluate cell uptake and localisation of the probe compounds. The system was an Axiovert 100 microscope (Carl Zeiss, Welwyn Garden City, UK) ×10 0.3 NA air objective lens and an ORCA-ER CCD camera (Hamamatsu, Reading, UK). Illumination was controlled by a shutter in front of the transmission lamp. Image capture was controlled using Metamorph software. Human non-small cell lung cancer A549 cell line was used as the cell model to determine whether variation of the probe loading and localisation occurred in cell population sustaining a “side population” (SP) (Smith P J, Wiltshire M, Chappell S C, Cosentino L, Burns P A, Pors K, Errington R J. Kinetic analysis of intracellular Hoechst 33342—DNA interactions by flow cytometry: misinterpretation of side population status? Cytometry A 2013; 83:161-9) with a known capacity to efflux xenobiotic molecules, including the DNA dye Hoechst 33342.
Cells were incubated for 30 min with each compound and then images were collected at a 30 ms exposure time using low resolution wide-field fluorescence microscopy. Using an Axiovert 100 microscope (Carl Zeiss, Welwyn Garden City, UK) ×10 0.3 NA air objective lens and an ORCA-ER CCD camera (Hamamatsu, Reading, UK). Illumination was controlled by a shutter in front of the transmission lamp. Image capture was controlled using Metamorph software. The calibration bar represents 50 μm.

[4] = test system: U-2 OS cells; assay: Confocal laser scanning microscopy (CLSM) localisation analysis; format: cell-based, human; conditions: 30 min incubation, Ex 637 nm, Em >665 nm, FIG. 4 and 5
Procedure: Confocal laser scanning microscopy (CLSM) was used to analyse the localisation of compounds BST-100, BST-101 and BST-106 with the U-2 OS cells, as it permitted the acquisition of volume limited optical sections through the cell and media. Excitation (637 nm) and emission (>665 nm) values for the probe analysis were the optimal conditions. The data sets obtained were processed and assembled into a single maximum projection image.
The patterns were analysed after 30 min incubation at different z depths and eliminating the solution background. The nucleus/cytoplasm ratio was calculated to quantify the localisation of the probe per cell.
A Radiance CLSM (BioRad Microscience) was used attached to an inverted Nikon microscope. Image acquisition was performed using excitation (637 nm) and emission (>665 nm) wavelengths. The histogram plot reports the nucleus/cytoplasm index to determine DNA binding in live cells. The calibration bar represents 10 μm.
The compounds BST-108, BST-109 were analysed in the same way.

[5] = test system: A549 cells; assay: Pulse exposure to probes, time-lapse, reimaged after 72 h; format: cell-based, human; conditions: 20 uM for 15 mins, washout, T=72 h
Procedure: In this regard, A549 cells were seeded in a 24 well coverslip bottomed-plate, cultured overnight in McCoys media for 24 or 48 hours. The plates were placed onto an inverted automated microscope, with the capacity for acquiring an image sequence of different wells (therefore exposure to different agent labelling). An Axiovert 100 microscope (Carl Zeiss, Welwyn Garden City, UK) was fitted with an incubator for 37° C./5% CO2 maintenance (Solent Scientific, Portsmouth, UK), and an ORCA-ER CCD camera (Hamamatsu, Reading, UK). Illumination was controlled by a shutter in front of the transmission lamp, and an x, y positioning stage with separate z-focus (Prior Scientific, Cambridge, UK) controlled multi-field acquisition. Image capture was controlled using Metamorph software.
Cells were exposed to a constant dose (0-5 μM) or a pulsed dose of 0 or 20 μM agent for 15 minutes followed by washout with warmed full media.
All images were collected with a ×10 (PH1) apochromat objective lens providing a field size of 500 times 500 microns. In this case a phase contrast image was collected every 30 minutes for 72 hours. Single cell growth and expansion can be tracked over time. The cells were harvested and run through a flow cytometry (typically a FACS Calibur 635 nm excitation/661/16 emission).
A549 cells were loaded with 20 uM BST-101, BST-109 or BST-110 for 15 mins followed by washout. Cells were then time-lapsed and reimaged after T=72 h, as before, […]

[6] = test system: MCF7; assay: MTT cellular viability (growth inhibition) assay, MCF7; format: cell-based; conditions: Homo sapiens, 0.25-100 μM, 72 h, Table 3
Procedure: (§3) The viability of A549 or MCF7 in response to compounds was determined using the MTT (3-(4,5-dimethylthiazolyl-2-)-2, 5-diphenyltetrazolium bromide) assay according to the protocol set out in Mosmann T., Rapid colorimetric assay for cellular growth and survival: application to proliferation and cytotoxicity assays. Journal of immunological methods 1983; 65:55-63.
(§4) Initially, cells were seeded into a rounded-bottom 96 well plate (Corning) at six different cell seeding densities (0.5×104, 1×104, 2×104, 3×104, 4×104, and 5×104) per mL of R10 media (cells/mL) in order to optimise the assay and establish the most suitable seeding assay. Concentration of 1×10^4 cells/mL was determined to be the optimum seeding density for both cell lines for 96 h total incubation. A control lane contained supplemented R10 only. The 96 well plates were incubated overnight at 37° C., 5% CO2 and 100% humidity to allow cell adhesion. Cells were then treated respectively with novel AAQs (0.25-100 μM) or growth inhibition (IC50) of compounds of the invention was studied against MCF7 and A549 cancer cell lines. Compounds were tested with a concentration range between 0.25 and 100 μM for 72 h and doxorubicin, as positive cytotoxic control, was tested in parallel at the same doses.

[7] = test system: A549; assay: MTT cellular viability (growth inhibition) assay, A549; format: cell-based; conditions: Homo sapiens, 0.25-100 μM, 72 h, Table 3
Procedure: as §3, §4

[8] = test system: 2780/cp70; assay: Further tests against cell lines, 2780/cp70; format: cell-based; conditions: ratio to A2780
[9] = test system: MCP1; assay: Further tests against cell lines, MCP1; format: cell-based; conditions: ratio to A2780
Procedure: (§5) Further tests were carried out against A2780, 2780AD and MCP1 cell lines.

[10] = test system: 2780AD; assay: Further tests against cell lines, 2780AD; format: cell-based; conditions: ratio to A2780
Procedure: as §5

| Structure (SMILES) | peak excitation wavelength ([1]; excitation wavelength used for fluorescence spectra of FIG. 1A/1B) | fluorescence emission, 540 nm (Ex in PBS) ([1]; PBS, 20 μM) | staining pattern in fixed cells [2] | staining pattern in live cells [3] | subcellular localisation by CLSM [4] | cell division and signal retention / location after pulse exposure [5] | IC50 [6] | IC50 [7] | fluorescence emission, λ1 nm (Ex in HEPES) ([1]; excited at absorption peak 1 (λ1), HEPES, 20 μM) | fluorescence emission, λ1 nm (Ex in PBS) ([1]; excited at absorption peak 1 (λ1), PBS, 20 μM) | fluorescence brightness / background in fixed cells [2] | RF (2780/cp70) [8] | RF (MCP1) [9] | RF (2780AD) [10] |
| --- | --- | --- | --- | --- | --- | --- | --- | --- | --- | --- | --- | --- | --- | --- |
| COC(CCCCNc1ccc(NCCCCC(OC)OC)c2c1C(=O)c1ccccc1C2=O)OC [BST-101, 1,4-Bis(5,5-dimethoxypentylamino)anthracene-9,10-dione] | 540 nm | 712 nm | diffuse cytoplasmic staining, with some perinuclear and nucleoli labelling | heterogeneous cytoplasmic staining | low levels of probe in the perinuclear region, with probable overload in Golgi body and large vesicles | dividing, and signal retained in the same membrane compartment as at the start | 750 nM | > 100000 nM | – | – | – | – | – | – |
| COC(CNCCNc1ccc(NCCNCC(OC)OC)c2c1C(=O)c1c(O)ccc(O)c1C2=O)OC [BST-200, 1,4-bis((2-((2,2-dimethoxyethyl)amino)ethyl)amino)-5,8-dihydroxyanthracene-9,10-dione] | – | 690 nm | cytoplasmic staining, good object recognition, and some heterogeneity on nuclear staining | heterogeneity on cytoplasmic load on, with bright fluorescence signal and staining of mitotic figures | – | – | – | – | 684 nm | 688 nm | very bright fluorescence | 0.09 | 0.26 | 2.9 |
| N.N.[Cl][Pt][Cl] [Cisplatin, reference compound] | – | – | – | – | – | – | – | – | – | – | – | 5.37 | 1.26 | 4.6 |
